Values after ≈ are worked out from the molar mass of the structure shown.
Test: Solubility of DXM in the 6:1 (v/v) DCM to THF spin dope co-solvent
Assay type: physicochemical
Conditions: 6:1 (v/v) DCM to THF co-solvent (spin dope), organic solvent or mixture; 6:1 (v/v) DCM to THF with PLLA; read-out: maximum solubility in co-solvent solution
Method: PLLA (7.5% w/v), DXM-loaded (1.0%, 2.4%, 4.8% w/w) and unloaded (0% w/w) microfibers were wet spun by phase inversion. PLLA (526.9±0.3 mg) was dissolved in a co-solvent ratio of 6:1 (v/v) DCM to THF. […] The addition of THF was necessary to increase DXM solubility within the spin dope. The polymer/drug solution was loaded into a 5 mL syringe fitted with a 22-gauge spinneret and placed in a syringe pump with a solution flow rate of 0.06 mL/min. […] A rotating mandrel placed above the spin bath was used to collect microfibers for further analysis. Each formulation in Examples herein was characterized from multiple regions of meter-long microfiber bundles spun at the same time from one spin dope solution.

## C[C@@H]1C[C@H]2[C@@H]3CCC4=CC(=O)C=C[C@]4(C)[C@@]3(F)[C@@H](O)C[C@]2(C)[C@@]1(O)C(=O)CO [DXM, Dexamethasone]
  solubility: ~3.6 mg/mL (≈ 9.17 mM)
